Earlier results on one compound are cited in patent publication US7989600B2, “Macrolide compounds containing biotin and photo-affinity group for macrolide target identification” (GlaxoSmithKline Istrazivacki Centar Zagreb D.O.O., priority 2005, dated 2011).

In this data set the test system is α1-acid glycoprotein from serum. Particulars: dialysis in combination HPLC methods; Castearena et al., J Chemother. 1995.

On to `CC[C@H]1OC(=O)[C@H](C)[C@@H](O[C@H]2C[C@@](C)(OC)[C@@H](O)[C@H](C)O2)[C@H](C)[C@@H](O[C@@H]2O[C@H](C)C[C@H](N(C)C)[C@H]2O)[C@](C)(O)C[C@@H](C)CN(C)[C@H](C)[C@@H](O)[C@]1(C)O` [azithromycin], for which the “binding to α1-acid glycoprotein from serum” value is given as “specifically binds”.
